Test results: patent US20240294499A1, “TARGETED PROTEIN DEGRADATION USING BIFUNCTIONAL COMPOUNDS THAT BIND UBIQUITIN LIGASE AND TARGET MCL-1 PROTEIN” (Captor Therapeutics S.A., priority 2021, published 2024)

Columns and labels:
[1] = biological target: T1, [MCL-1]-[compound of formula (I)]-[CRBN/DDB1] complex (Homo sapiens, UniProt Q07820+Q96SW2); experiment: AlphaLISA dose response ternary complex formation assay; format: binding; conditions: read-out: AlphaLISA dose response Average pEC50 by molecule (converted)
How it was run: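 EC50 comes from dose–response of AlphaLISA luminescence (excitation 680, emission 615 nm), normalised between DMSO background and an internal positive control, with concentrations past the hook point dropped. Ternary complex formed by mixing bead-bound biotin-hMCL-1 and His-CRBN/DDB1 (protein solutions 40 and 200 nM) with compound in 2% DMSO, 30 min, 25 °C.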

[2] = biological target: T1, [MCL-1]-[compound of formula (I)]-[CRBN/DDB1] complex; experiment: HTRF ternary complex assay; format: binding; conditions: ternary complex formation; read-out: HTRF ternary complex Average pEC50 by molecule (converted)
Procedure: The effect of the bifunctional compounds of the invention on the formation of a ternary complex composed of [MCL-1]-[compound of formula (I)]-[CRBN/DDB1] was investigated.
Mix of protein solution were prepared: • 48 nM hMcl-1 and 105.6 nM CRBN was prepared in PPI Europium detection buffer with 2 mM DTT. • Acceptor and donor stock solutions were diluted 100 times in PPI Europium detection buffer. Equal volumes of both reagents were mixed. Finally giving 3 nM of Streptavidin-Eu cryptate […] and 6.67 nM of Anti-6× his-d2 […].
5 μl of protein mix was dispensed to all wells. The tested compounds in dose-response were dispensed onto a white 384-well low volume plate (Greiner, 784075). DMSO was backfilled to all wells, resulting in a final DMSO content of 0.5%. Wells containing only DMSO served as background. Next, 5 μl of solution with donor and acceptor was added to the wells.
The plate was sealed with transparent film and shaken using a VibroTurbulator for 60 see at level 3. The plate was then spun down shortly (10 s, 1000 rcf) and incubated at 25° C. for 180 min.
The read-out was performed with plate reader (Pherastar, BMG Labtech) in time resolved fluorescence mode. Filterset: TR 337 665 620.
The results were analyzed as follows: • 1) an average of fluorescence for background signal was calculated and used as a negative control; • 2) raw fluorescence values for tested compounds were normalized against negative controls; • 3) bell shape curve was fitted to a gaussian distribution using a non-linear least squares Gauss-Newton algorithm; • 4) EC50 and pEC50 values were determined.

MV-4-11 cells = experiment: Cell viability assay (CellTiter-Glo), MV-4-11; format: cell-based; conditions: Homo sapiens, MV4-11, 24 hours incubation, 1% FBS, read-out: Average pIC50 by molecule MV-4-11 (converted)
How it was run: (§1)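 Luminescent ATP readout (CellTiter-Glo) at 24 hours measured viability, expressed relative to DMSO-treated wells. Compound was added directly to the medium as a 9–12-point threefold series starting at 30 uM, at 0.5% final DMSO. The medium contained FBS reduced to 1%.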

ARH-77 cells = experiment: Cell viability assay (CellTiter-Glo), ARH-77; format: cell-based; conditions: Homo sapiens, ARH-77, 24 hours incubation, 1% FBS, read-out: Average pIC50 by molecule ARH-77 (converted)
How it was run: as §1

T1 sequence (Q07820 whole entry): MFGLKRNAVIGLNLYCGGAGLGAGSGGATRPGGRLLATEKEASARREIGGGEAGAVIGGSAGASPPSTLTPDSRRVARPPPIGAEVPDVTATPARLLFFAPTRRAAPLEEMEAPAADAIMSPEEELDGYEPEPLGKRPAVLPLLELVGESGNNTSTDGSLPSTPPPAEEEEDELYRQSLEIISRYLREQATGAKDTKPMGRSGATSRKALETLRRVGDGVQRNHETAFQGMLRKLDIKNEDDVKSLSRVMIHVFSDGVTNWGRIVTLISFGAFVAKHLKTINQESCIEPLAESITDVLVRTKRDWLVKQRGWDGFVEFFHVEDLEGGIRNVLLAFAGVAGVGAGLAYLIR
T1 sequence (Q96SW2 whole entry): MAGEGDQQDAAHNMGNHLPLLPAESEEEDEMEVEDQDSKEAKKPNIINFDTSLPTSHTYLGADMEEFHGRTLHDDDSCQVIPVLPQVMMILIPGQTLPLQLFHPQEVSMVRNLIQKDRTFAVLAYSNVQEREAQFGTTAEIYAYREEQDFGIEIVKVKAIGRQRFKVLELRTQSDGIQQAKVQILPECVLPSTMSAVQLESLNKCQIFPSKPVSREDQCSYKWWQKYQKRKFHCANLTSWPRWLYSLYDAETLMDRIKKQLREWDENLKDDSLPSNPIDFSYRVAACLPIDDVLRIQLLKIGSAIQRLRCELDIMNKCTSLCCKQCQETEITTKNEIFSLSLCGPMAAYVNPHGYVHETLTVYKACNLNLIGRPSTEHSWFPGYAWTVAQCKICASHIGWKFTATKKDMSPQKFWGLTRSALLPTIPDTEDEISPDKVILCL
T1 sequence (Q16531 whole entry partner): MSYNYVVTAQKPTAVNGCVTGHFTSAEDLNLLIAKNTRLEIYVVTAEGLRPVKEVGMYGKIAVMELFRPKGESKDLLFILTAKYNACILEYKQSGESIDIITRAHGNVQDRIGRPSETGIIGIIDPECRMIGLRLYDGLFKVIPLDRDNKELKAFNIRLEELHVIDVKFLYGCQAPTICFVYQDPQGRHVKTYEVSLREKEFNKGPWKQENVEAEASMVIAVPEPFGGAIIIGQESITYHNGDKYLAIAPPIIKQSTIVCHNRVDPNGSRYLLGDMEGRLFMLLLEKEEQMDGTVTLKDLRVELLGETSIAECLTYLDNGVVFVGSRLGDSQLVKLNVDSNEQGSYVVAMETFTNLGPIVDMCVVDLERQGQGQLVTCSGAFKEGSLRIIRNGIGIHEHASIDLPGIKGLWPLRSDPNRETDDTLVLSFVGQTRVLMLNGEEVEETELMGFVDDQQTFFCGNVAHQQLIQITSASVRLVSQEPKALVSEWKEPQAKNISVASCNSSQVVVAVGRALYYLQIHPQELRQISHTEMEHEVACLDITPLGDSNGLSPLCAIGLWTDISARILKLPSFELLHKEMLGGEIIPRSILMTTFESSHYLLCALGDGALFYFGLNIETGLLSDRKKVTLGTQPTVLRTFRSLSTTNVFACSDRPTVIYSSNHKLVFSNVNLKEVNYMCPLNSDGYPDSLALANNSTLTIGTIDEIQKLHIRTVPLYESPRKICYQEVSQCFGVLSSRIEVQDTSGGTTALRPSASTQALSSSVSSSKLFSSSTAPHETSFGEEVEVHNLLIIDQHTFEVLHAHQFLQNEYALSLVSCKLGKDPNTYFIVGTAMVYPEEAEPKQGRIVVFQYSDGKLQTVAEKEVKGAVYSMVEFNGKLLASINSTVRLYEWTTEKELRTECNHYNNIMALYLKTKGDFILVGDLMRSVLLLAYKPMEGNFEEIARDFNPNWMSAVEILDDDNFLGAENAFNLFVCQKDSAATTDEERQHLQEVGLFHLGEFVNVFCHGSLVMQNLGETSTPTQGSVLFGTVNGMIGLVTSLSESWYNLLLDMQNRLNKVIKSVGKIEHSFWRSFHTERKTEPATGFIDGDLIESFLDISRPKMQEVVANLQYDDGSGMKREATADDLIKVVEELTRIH

Row | SMILES | EC50 [1] [nM] | EC50 [2] [nM] | IC50 (MV-4-11 cells) [nM] | IC50 (ARH-77 cells) [nM]
1 | Cc1nn(C)c(C)c1-c1c(Cl)ccc2c(CCCOc3cccc4cc(F)ccc34)c(C(=O)O)n(CCCCN(C)C(=O)COc3cccc4c3CN(C3CCC(=O)NC3=O)C4=O)c12 (stereo not shown) [Compound 326, 6-chloro-1-[4-(2-{[2-(2,6-dioxopiperidin-3-yl)-1-oxo-2,3-dihydro-1H-isoindol-4-yl]oxy}-N-methylacetamido)butyl]-3-{3-[(6-fluoronaphthalen-1-yl)oxy]propyl}-7-(1,3,5-trimethyl-1H-pyrazol-4-yl)-1H-indole-2-carboxylic acid] | < 100 | < 10 | ≤ 316 | > 10000
2 | Cc1nc2cc(NCC(=O)N3CCN(CCn4c(C(=O)O)c(CCCOc5cccc6cc(F)ccc56)c5ccc(Cl)c(-c6c(C)nn(C)c6C)c54)CC3)ccc2cc1C1CCC(=O)NC1=O (stereo not shown) [Compound 285, 6-Chloro-1-(2-(4-((3-(2,6-dioxopiperidin-3-yl)-2-methylquinolin-7-yl)glycyl)piperazin-1-yl)ethyl)-3-(3-((6-fluoronaphthalen-1-yl)oxy)propyl)-7-(1,3,5-trimethyl-1H-pyrazol-4-yl)-1H-indole-2-carboxylic acid] | – | < 10 | ≤ 100 | > 10000
3 | Cc1nn(C)c(C)c1-c1c(Cl)ccc2c(CCCOc3cccc4cc(F)ccc34)c(C(=O)O)n(CCC3CCC(NC(=O)COc4cccc5c4CN(C4CCC(=O)NC4=O)C5=O)CN3C)c12 (stereo not shown) [Compound 306, 6-Chloro-1-{2-[5-(2-{[2-(2,6-dioxopiperidin-3-yl)-1-oxo-2,3-dihydro-1H-isoindol-4-yl]oxy}acetamido)-1-methylpiperidin-2-yl]ethyl}-3-{3-[(6-fluoronaphthalen-1-yl)oxy]propyl}-7-(1,3,5-trimethyl-1H-pyrazol-4-yl)-1H-indole-2-carboxylic acid] | – | < 10 | ≤ 100 | > 10000
4 | Cc1nn(C)c(C)c1-c1c(Cl)ccc2c(CCCOc3cccc4cc(F)ccc34)c(C(=O)O)n(CCOCCCn3c(C)nc4c(C(=O)NC5CCC(=O)NC5=O)cccc43)c12 (stereo not shown) [Compound 282, 6-Chloro-1-[2-(3-{4-[(2,6-dioxopiperidin-3-yl)carbamoyl]-2-methyl-1H-1,3-benzodiazol-1-yl}propoxy)ethyl]-3-{3-[(6-fluoronaphthalen-1-yl)oxy]propyl}-7-(1,3,5-trimethyl-1H-pyrazol-4-yl)-1H-indole-2-carboxylic acid] | – | < 100 | ≤ 31.6 | > 3160
5 | Cc1nn(C)c(C)c1-c1c(Cl)ccc2c(CCCOc3cccc4cc(F)ccc34)c(C(=O)O)n(CCC3CN(C(=O)COc4cccc5c4CN(C4CCC(=O)NC4=O)C5=O)C3)c12 (stereo not shown) [Compound 299, 6-Chloro-1-(2-(1-(2-((2-(2,6-dioxopiperidin-3-yl)-1-oxoisoindolin-4-yl)oxy)acetyl)azetidin-3-yl)ethyl)-3-(3-((6-fluoronaphthalen-1-yl)oxy)propyl)-7-(1,3,5-trimethyl-1H-pyrazol-4-yl)-1H-indole-2-carboxylic acid] | – | < 100 | ≤ 100 | > 10000
6 | Cc1nn(C)c(C)c1-c1c(Cl)ccc2c(CCCOc3cccc4cc(F)ccc34)c(C(=O)O)n(CCN3CCN(C4CN(c5cc6c(cc5F)C(=O)N(C5CCC(=O)NC5=O)C6=O)C4)CC3)c12 (stereo not shown) [Compound 335, 6-Chloro-1-(2-(4-(1-(2-(2,6-dioxopiperidin-3-yl)-6-fluoro-1,3-dioxoisoindolin-5-yl)azetidin-3-yl)piperazin-1-yl)ethyl)-3-(3-((6-fluoronaphthalen-1-yl)oxy)propyl)-7-(1,3,5-trimethyl-1H-pyrazol-4-yl)-1H-indole-2-carboxylic acid] | – | < 10 | ≤ 31.6 | > 3160
